According to ChEMBL document CHEMBL1127266, “N-sulfonamides of benzopyran-related potassium channel openers: Conversion of glyburide insensitive smooth muscle relaxants to potent smooth muscle contractors” (Bioorg Med Chem Lett, 1994):
“And” between values parts separate entries of the source, which are not always exact repeats. Identical values can stand only once.

What was measured:
Format in all cases: functional
Rattus norvegicus [1] = organism: Rattus norvegicus; assay: Percent activity at 30 uM as the increase (+) and/or decrease (-) in the contractile response for each individual experiment in rat bladder; parameters: scale not given: the % may be the effect or the level left
Rattus norvegicus [2] = organism: Rattus norvegicus; assay: Percent glyburide reversibility as potassium channel (K ATP) opening activity assay
Rattus norvegicus [3] = organism: Rattus norvegicus; assay: In vitro evaluation for concentration to inhibit KCI (25 mM ) induced contractions of rat aorta
Rattus norvegicus [4] = organism: Rattus norvegicus; assay: In vitro evaluation for concentration to inhibit KCI (15 mM ) induced contractions of rat bladder

IC50 (Rattus norvegicus [4]; Rattus norvegicus) [µM]	Structure (SMILES)	Activity (Rattus norvegicus [1]) [%]	GR (Rattus norvegicus [2])	other results
–	CN([C@@H]1c2cc(OC(F)(F)F)ccc2OC(C)(C)[C@H]1O)S(=O)(=O)C(F)(F)F	352	–	–
–	CC1(C)Oc2ccc(OC(F)(F)F)cc2[C@@H](NS(=O)(=O)CCl)[C@@H]1O	39	–	–
–	CC1(C)Oc2ccc(OC(F)(F)F)cc2[C@@H](NS(=O)(=O)c2ccccc2)[C@@H]1O	44	–	–
7.1	CC1(C)Oc2ccc(OC(F)(F)F)cc2[C@H](NS(=O)(=O)C(F)(F)F)[C@H]1O	–	0%	IC50 (Rattus norvegicus [3]; Rattus norvegicus, Aorta): 2.6 µM
0.03	CC1(C)Oc2ccc(OC(F)(F)F)cc2[C@@H](N2Cc3ccccc3C2=O)[C@@H]1O [CELIKALIM]	–	80% and 55%	IC50 (Rattus norvegicus [3]; Rattus norvegicus, Aorta): 0.013 µM
–	CC1(C)Oc2ccc(OC(F)(F)F)cc2[C@@H](NS(=O)(=O)c2cccnc2)[C@@H]1O	133	–	–
–	CC1(C)Oc2ccc(OC(F)(F)F)cc2[C@@H](NS(=O)(=O)C(F)(F)F)[C@@H]1O (stereo in doubt; 8) [listing 1 of 2 here]	–	0%	–
–	CC1(C)Oc2ccc(OC(F)(F)F)cc2[C@@H](NS(=O)(=O)c2cccc3ccccc23)[C@@H]1O	52	–	–
–	CC1(C)Oc2ccc(OC(F)(F)F)cc2[C@@H](NS(C)(=O)=O)[C@@H]1O	3	8%	–
0.15	CC1(C)Oc2ccc(C#N)cc2[C@H](N2CCCC2=O)[C@H]1O (single isomer, unassigned) [(-)-CROMAKALIM]	–	68% and 75%	IC50 (Rattus norvegicus [3]; Rattus norvegicus, Aorta): 0.06 µM
6.2	CC1(C)C[C@H](NS(=O)(=O)C(F)(F)F)c2cc(OC(F)(F)F)ccc2O1	–	41%	IC50 (Rattus norvegicus [3]; Rattus norvegicus, Aorta): 10.7 µM
–	CC1(C)Oc2ccc(OC(F)(F)F)cc2[C@@H](NS(=O)(=O)c2ccc([N+](=O)[O-])cc2)[C@@H]1O	195	–	–
–	CC1(C)Oc2ccc(OC(F)(F)F)cc2[C@@H](NS(=O)(=O)C(F)(F)F)[C@@H]1O (stereo in doubt; 1) [listing 1 of 2 here]	–	14% and 2%	–
–	CC1(C)Oc2ccc(OC(F)(F)F)cc2[C@H](NS(=O)(=O)c2ccc([N+](=O)[O-])cc2)[C@H]1O	4.68	0%	–
4.6	CC1(C)Oc2ccc(OC(F)(F)F)cc2[C@@H](NS(=O)(=O)C(F)(F)F)[C@@H]1O (stereo in doubt; 1) [listing 2 of 2 here]	–	–	IC50 (Rattus norvegicus [3]): 8 µM
–	CC1(C)Oc2ccc(OC(F)(F)F)cc2[C@@H](NS(=O)(=O)C(F)(F)F)[C@@H]1O (stereo in doubt; 8) [listing 2 of 2 here]	–	–	IC50 (Rattus norvegicus [3]): 2 µM; IC50 (Rattus norvegicus [4]): 3.6 µM
